Measurements as given in article PMC9743094, “Synthesis and Evaluation of Polymyxins Bearing Reductively Labile Disulfide-Linked Lipids” (Journal of Medicinal Chemistry, 2022).
Values after ≈ are worked out from the molar mass of the structure shown. Read-outs that look alike come from different tables or passages of the source. Starred links: 1 amine or outer side, 2 acyl side, 3 side chain; linkers in the order of their positions; H or OH if unused. Positions of bridges follow the written chain, without caps; N, C: chain ends. Non-standard residues stand in square brackets, D forms with d. Residues, ends and D or L forms follow the SMILES beside them. *: point of attachment. X2 = CC(C)CCCCC[C@@H](N[*:1])C(=O)[*:2]; S(3-Cl-benzyl) = Clc1cccc(CS*)c1; Dab = NCC[C@H](N)C(=O)O; X1 = CC(C)CCCCS*

How the values were obtained:
[1] = test system: K. pneumoniae (ATCC 13883); format: cell-based; settings: ATCC 13883
Experimental: (§1) Minimum inhibitory concentrations (MICs) on relevant Gram-negative bacteria were determined by broth microdilution, in accordance with CLSI guidelines. Indicated bacteria were taken from glycerol stocks and incubated overnight on blood agar at 37 °C. Well-isolated colonies were taken, suspended in TSB (5 mL), and grown to an OD600 of 0.5. Compounds to be tested were dissolved in DMSO (6.4 mg/mL), diluted in cation-adjusted Mueller–Hinton Broth (CAMHB) (12.5 and 20 μg/mL Mg^2+ and Ca^2+, respectively), and diluted serially on polypropylene microtiter plates. To the diluted compounds (50 μL per well) was added 50 μL of relevant bacterial suspension, to yield a final concentration of 10^6 CFU/mL. Plates were covered by adhesive gas-permeable membranes and incubated at 37 °C. MIC was read out as the lowest concentration that inhibited visual bacterial growth. Shown values are consistent results from at least duplicate experiments.

[2] = test system: A. baumannii (ATCC 19606); format: cell-based; settings: ATCC 19606
Experimental: as §1

[3] = test system: P. aeruginosa (ATCC 27853); format: cell-based; settings: ATCC 27853
Experimental: as §1

E. coli (ATCC 25922) = format: cell-based; settings: ATCC 25922
Experimental: as §1

E. coli JS136 = format: cell-based; settings: JS136
Experimental: as §1
(§2) Bacterial strains used for MIC assays and extended MIC assessment
(§3) Strains: The following strains were obtained from BEI Resources, NIAID, NIH: E. Coli M0072, strain
(§4) Table S2. […] Values are given in μg/mL.
(§5) Species Strain ID Resistance Polymyxin B 18b 23a 24a

A. baumannii NRZ-00687 = format: cell-based; settings: NRZ-00687
Experimental: as §1, §2, §3, §4, §5

K. pneumoniae KP1.53 = format: cell-based; settings: KP1.53
Experimental: as §1, §2, §3, §4, §5

A. baumannii RUH-134 = format: cell-based; settings: RUH-134
Experimental: as §1, §2, §3, §4, §5

E. coli M0072 = format: cell-based; settings: M0072
Experimental: as §1, §2, §3, §4, §5

P. aeruginosa 2018-007 = format: cell-based; settings: 2018-007
Experimental: as §1, §2, §3, §4, §5

A. baumannii BAA-747 = format: cell-based; settings: BAA-747
Experimental: as §1, §2, §3, §4, §5

P. aeruginosa M120 = format: cell-based; settings: M120
Experimental: as §1, §2, §3, §4, §5

K. pneumoniae ATCC 29665 = format: cell-based; settings: ATCC 29665
Experimental: as §1, §2, §3, §4, §5

K. pneumoniae RC0045 = format: cell-based; settings: RC0045
Experimental: as §1, §2, §3, §4, §5

P. aeruginosa 2251 = format: cell-based; settings: 2251
Experimental: as §1, §2, §3, §4, §5

E. coli 1793 = format: cell-based; settings: 1793
Experimental: as §1, §2, §3, §4, §5

P. aeruginosa ATCC 10145 = format: cell-based; settings: ATCC 10145
Experimental: as §1, §2, §3, §4, §5

[4] = test system: differentiated conditionally immortalized PTECs (ciPTECs, OAT-1); assay: ciPTEC toxicity assay (PrestoBlue); format: cell-based, human
Experimental: ciPTECs (OAT-1) cells,[52],[53] grown to 90–100% confluence, were washed by Hanks’ balanced salt solution (HBSS; Gibco, Life Technologies, Paisley, U.K.) and detached by accutase (4 mL) for 5 min at 37 °C. The cells were then suspended in fresh medium (DMEM/F-12, supplemented with 10% fetal calf serum, insulin (5 μg/mL), transferrin (5 μg/mL), selenium (5 μg/mL) hydrocortisone (35 ng/mL), Epidermal Growth Factor (10 ng/mL) and tri-iodothyronine (40 pg/mL)). Cell density was adjusted to 2.0 × 10^5 cells/mL, of which 100 μL was added to each well of a 96-well plate. The cells were incubated for 24 h at 33 °C, followed by 6 days at 37 °C, in a humidified atmosphere containing 5% (v/v) CO2. The medium was refreshed every second or third day.
Compounds were dissolved and serially diluted in serum-free medium. Differentiated cells were washed once with HBSS and serially diluted compounds (80 μL/well) were transferred to the ciPTEC-containing plate. Compounds were incubated for 24 h at 37 °C; the cells were washed by HBSS, followed by incubation with 10% PrestoBlue cell viability reagent (Thermo Scientific, Vienna, Austria) in HBSS at 37 °C in the dark. Fluorescence was recorded (excitation: 530 nm, emission: 590 nm). Raw data are corrected for PrestoBlue background fluorescence and reported relative to the no-treatment control (cells with medium only). Viability data were fitted with GraphPad Prism software (version 5.03; GraphPad Software, La Jolla, CA), by nonlinear regression with 0 as bottom constraint. Presented data are based on triplicates.
Toxicity assessment on PTECs
Table S1. TC50 values for polymyxin analogues. Toxicity assessment on proximal tubular epithelial cells
performed using PrestoBlue™ assay. TC50 values are derived after non-linear regression analysis on cell viability
correspond to data obtained from 2 different batches of cells/analyses on different days. As the value for
polymyxin B differs 2-fold, values in the manuscript are presented relative to the polymyxin B value.
Compound TC50 (µ M) Compound TC50 (µ M)
Polymyxin B 80 Polymyxin B 41
Figure S3. Representative traces of ciPTECs’ viability after incubation with analogues for 24 hours. Shown data are based on […]

P. aeruginosa (PAO1) = format: cell-based; settings: PAO1, 2 h
Experimental: as §1
(§6) Table S3. MIC values [µg/mL] and relative toxicity values for disulfide containing polymyxin derivative 18b and
(§7) non-disulfide containing analogue 45. […]

A. baumanii (ATCC 17961) = format: cell-based; settings: ATCC 17961, 2 h
Experimental: as §1, §6, §7

Row | MIC K. pneumoniae (ATCC 13883) [1] | MIC A. baumannii (ATCC 19606) [2] | MIC P. aeruginosa (ATCC 27853) [3] | MIC A. baumannii NRZ-00687 (A. baumannii NRZ-00687) | SMILES | MIC E. coli (ATCC 25922) (E. coli (ATCC 25922)) | TC50, Day 2 [4] | ciPTEC Toxicity Index (relative to polymyxin B) [4] | also measured
1 | 1 µg/mL (≈ 0.798 µM) | 1 µg/mL (≈ 0.798 µM) | 2 µg/mL (≈ 1.6 µM) | 1 µg/mL (≈ 0.798 µM) | CC(C)CCCCSSC[C@H](NC(=O)CN)C(=O)N[C@H](C(=O)N[C@@H](CCN)C(=O)N[C@H]1CCNC(=O)[C@H]([C@@H](C)O)NC(=O)[C@H](CCN)NC(=O)[C@H](CCN)NC(=O)[C@H](CC(C)C)NC(=O)[C@@H](Cc2ccccc2)NC(=O)[C@H](CCN)NC1=O)[C@@H](C)O [Compound 24a] (H-GC(X1)T[Dab][Dab][Dab][dF]L[Dab][Dab]T; lactam 5-C) | 2 µg/mL (≈ 1.6 µM) | 327 µM | 8.0 | MIC E. coli JS136 (E. coli JS136): 1 µg/mL (≈ 0.798 µM); MIC K. pneumoniae KP1.53 (K. pneumoniae KP1.53): 2 µg/mL (≈ 1.6 µM); MIC A. baumannii RUH-134 (A. baumannii RUH-134): 1 µg/mL (≈ 0.798 µM); MIC E. coli M0072 (E. coli M0072): 1 µg/mL (≈ 0.798 µM); MIC P. aeruginosa 2018-007 (P. aeruginosa 2018-007): 16 µg/mL (≈ 12.8 µM); MIC A. baumannii BAA-747 (A. baumannii BAA-747): 1 µg/mL (≈ 0.798 µM); MIC P. aeruginosa M120 (P. aeruginosa M120): 2 µg/mL (≈ 1.6 µM); MIC K. pneumoniae ATCC 29665 (K. pneumoniae ATCC 29665): 1 µg/mL (≈ 0.798 µM); MIC K. pneumoniae RC0045 (K. pneumoniae RC0045): 1 µg/mL (≈ 0.798 µM); MIC P. aeruginosa 2251 (P. aeruginosa 2251): 2 µg/mL (≈ 1.6 µM); MIC E. coli 1793 (E. coli 1793): 1 µg/mL (≈ 0.798 µM); MIC P. aeruginosa ATCC 10145 (P. aeruginosa ATCC 10145): 4 µg/mL (≈ 3.19 µM)
2 | ≤ 0.25 µg/mL | 0.25 µg/mL (≈ 0.221 µM) | 1 µg/mL (≈ 0.883 µM) | 0.5 µg/mL (≈ 0.442 µM) | CC(C)CCCCC[C@@H](N)C(=O)N[C@H](C(=O)N[C@@H](CCN)C(=O)N[C@H]1CCNC(=O)[C@H]([C@@H](C)O)NC(=O)[C@H](CCN)NC(=O)[C@H](CCN)NC(=O)[C@H](CC(C)C)NC(=O)[C@@H](Cc2ccccc2)NC(=O)[C@H](CCN)NC1=O)[C@@H](C)O [Compound 45] (H-[X2]T[Dab][Dab][Dab][dF]L[Dab][Dab]T; lactam 4-C) | – | – | 2.0 | MIC P. aeruginosa (PAO1) (P. aeruginosa (PAO1)): 1 µg/mL (≈ 0.883 µM); MIC A. baumanii (ATCC 17961) (A. baumanii (ATCC 17961)): 0.25 µg/mL (≈ 0.221 µM); TC50, Day 2 ([4]; 24 h): 82 µM

Row | SMILES | MIC K. pneumoniae (ATCC 13883) [1] | MIC A. baumannii (ATCC 19606) [2] | MIC P. aeruginosa (ATCC 27853) [3] | MIC A. baumannii NRZ-00687 (A. baumannii NRZ-00687) | MIC E. coli (ATCC 25922) (E. coli (ATCC 25922)) | TC50, Day 2 [4] | ciPTEC Toxicity Index (relative to polymyxin B) [4] | also measured
3 | CC(C)C[C@@H]1NC(=O)[C@@H](Cc2ccccc2)NC(=O)[C@H](CCN)NC(=O)[C@@H](NC(=O)[C@H](CCN)NC(=O)[C@@H](NC(=O)[C@H](N)CSSCc2cccc(Cl)c2)[C@@H](C)O)CCNC(=O)[C@H]([C@@H](C)O)NC(=O)[C@H](CCN)NC(=O)[C@H](CCN)NC1=O [Compound 38] (H-[dC](S(3-Cl-benzyl))T[Dab][Dab][Dab][dF]L[Dab][Dab]T; lactam 4-C) | 0.5 µg/mL (≈ 0.409 µM) | 1 µg/mL (≈ 0.818 µM) | 4 µg/mL (≈ 3.27 µM) | – | 1 µg/mL (≈ 0.818 µM) | 74 µM | – | –
